Measured values: patent US12076421B2, “Assessment of coronary heart disease with carbon dioxide” (priority 2011, dated 2024)

Experiments:
LAD coronary arteries = assay: Epicardial flow enhancement, Carbogen against clinical dose of adenosine; type: in vivo, dogs; conditions: Carbogen with ETCO2 reaching 48-50 mm Hg
Method: (§1) In Examples 1-6, all imaging studies were performed in instrumented animals with a Doppler flow probe attached to the LAD coronary arteries for measurement of flow changes in response to CO2 and clinical dose of adenosine. In these studies, CO2 and O2 delivery were tightly controlled using Respiract. CO2 values were incremented in steps of 10 mmHg starting from 30 mmHg to 60 mmHg and were ramped down in decrements of 10 mmHg. At each CO2 level, free-breathing and cardiac gated blood-oxygen-level-dependent (BOLD) acquisitions were prescribed at mid diastole and Doppler flow velocities were measured. Similar acquisitions were also performed with block sequences of CO2 levels; that is, CO2 levels were alternated between 40 and 50 mmHg and BOLD images (and corresponding Doppler flow velocities) were acquired at each CO2 level to assess the reproducibility of the signal changes associated with different CO2 levels. Each delivery of CO2 using Respiract was made in conjunction with arterial blood draw to determine the arterial blood CO2 levels.
In detail, the color images (lower panel of FIG. 1) are color-coded to the signal intensities of grayscale images (above). The darker colors (blue/black) represent territories of baseline myocardial oxygenation and the brighter regions represent those regions that are hyperemic. […]

myocardium [1] = assay: Myocardial BOLD MRI response to PaCO2 modulation while PaO2 is held constant; type: in vivo, canines
Method: In Examples 1-6, all imaging studies were performed in instrumented animals with a Doppler flow probe attached to the LAD coronary arteries for measurement of flow changes in response to CO2 and clinical dose of adenosine. In these studies, CO2 and O2 delivery were tightly controlled using […]. […] At each CO2 level, free-breathing and cardiac gated blood-oxygen-level-dependent (BOLD) acquisitions were prescribed at mid diastole and Doppler flow velocities were measured. Similar acquisitions were also performed with block sequences of CO2 levels; that is, CO2 levels were alternated between 40 and 50 mmHg and BOLD images (and corresponding Doppler flow velocities) were acquired at each CO2 level to assess the reproducibility of the signal changes associated with different CO2 levels. Each delivery of CO2 using […] was made in conjunction with arterial blood draw to determine the arterial blood CO2 levels. […] We assessed the difference between myocardial blood-oxygen-level dependent (BOLD) response under hypercarbia and normocarbia conditions in canines. The BOLD signal intensity is proportional to oxygen saturation. […] The lower panel depicts the difference as obtained by subtracting the signal under rest from that under stress. […] We further assessed the myocardial BOLD response to stepwise CO2 increase (ramp-up) in canines. […] To further evaluate vascular reactivity and coronary response to CO2, we measured the myocardial BOLD signal in response to block increases of CO2 in canines. Specifically, the myocardial BOLD signal was measured as the amount of CO2 administered to the canine subjects alternated between 40 mmHg CO2 and 50 mmHg CO2. […] The myocardium is supplied with blood by the left anterior descending (LAD) artery, the right coronary artery (RCA) and the left circumflex (LCX) artery. We measured the blood flow through each of these arteries in response to increasing CO2 supply. As shown in FIG. 6 and summarized in FIG. 7, in each of the three LAD, RCA and LCX arteries, there is a direct correlation between the amount of CO2 administered and the signal intensity; as the amount of administered CO2 increases, the signal intensity, signaling the blood flow, in each of the three arteries increases. Further, as shown in FIG. 6 and summarized in FIG. 8, there was no response to CO2 modulation in control territories such as blood, skeletal muscle or air. […] Vascular reactivity of three canines that were administered with adenosine was compared with the vascular reactivity of canines that were administered with CO2. As shown in FIGS. 10A and 10B, the hyperemic adenosine stress BOLD response was approximately 12% compared with 16% in response to CO2.

[2] = test system: myocardial blood flow (MBF); assay: 13N-ammonia PET myocardial blood flow, canines without coronary stenosis; type: in vivo; conditions: for mean MBF: absence of stenosis, hypercapnia ~25 mmHg increase in PaCO2, standard dose adenosine; for Global MBF normalized by rate-pressure-product: intact canines, in ml/min/g per mmHg·bpm
Method: We investigated whether a physiologically tolerable hypercapnia stimulus ( 25-mmHg increase in PaCO2) can increase myocardial blood flow (MBF) to that observed with adenosine in three groups of canines: (i) without coronary stenosis; (ii) subjected to non-flow limiting coronary stenosis; and (iii) following pre-administration of caffeine. These studies were conducted by prospectively and independently controlling PaCO2 and combining it with ^[…]-ammonia Positron Emission Tomography (PET) measurements, and the extent of effect on MBF due to hypercapnia was compared to adenosine. The objectives of these studies were twofold: to investigate the effects of PaCO2 on MBF while minimizing contributions from factors that can unintentionally reduce or inaccurately report on sensitivity of PaCO2 on MBF; and to assess whether an independent, precise and rapid establishment of physiologically tolerable level of hypercapnia provides equivalent hyperemia as adenosine, a commonly used pharmacological stimulus for cardiac stress testing with and without pre-administration of caffeine. To address these aims, a clinically relevant animal model was used along with validated strategies for (i) precisely and rapidly establishing desired levels of PaCO2, while holding PaO2 constant; (ii) quantifying MBF in vivo; and (iii) image analysis to derive MBF values across the different coronary supply territories. We compared our findings to the effects of standard dose of adenosine in the same animal models with and without coronary stenosis to quantify MBF and flow deficit regions under peak tolerable PaCO2. To determine whether MBF response to PaCO2 overlaps the same mechanistic path as adenosine, we quantified MBF under hypercapnia and adenosine following caffeine administration. Studies were conducted as described in Yang, H-J et al., J. Nucl. Med. 58: 953-960 (2017), which is hereby incorporated by reference in its entirety. […] FIG. 13 is a table summarizing the mean arterial CO2, O2 and hemodynamic variables of interest in Group Intact. FIG. 14A-14D show the mean global MBF and MPR response to hypercapnia in relation to adenosine. Global MBF under adenosine and hypercapnia were both higher than at rest (p<0.05, for both) and were not different from one another (p=0.33). […] Similar observations were evident for regional MBF and MPR with hypercapnia and adenosine. The observed range of MBF at rest (0.44 to 1.93 ml/min/g) and adenosine (0.47 to 5.10 ml/min/g) and range of MPR under adenosine (1.20 to 4.57) across the animals is consistent with previous reports (Kuhle, W. G. et al., Circulation 86:1004-1017 (1992)).

[3] = test system: myocardial blood flow (MBF); assay: 13N-ammonia PET myocardial blood flow and perfusion defect, canines with LAD coronary stenosis; type: in vivo; conditions: for regional MBF versus rest: all territories (LAD, LCx, RCA); for regional MBF versus rest / MBF increase in the LAD territory: p<0.05; for MBF increase in the LAD territory: compared with LCx and RCA territories
Method: We investigated whether a physiologically tolerable hypercapnia stimulus ( 25-mmHg increase in PaCO2) can increase myocardial blood flow (MBF) to that observed with adenosine in three groups of canines: (i) without coronary stenosis; (ii) subjected to non-flow limiting coronary stenosis; and (iii) following pre-administration of caffeine. These studies were conducted by prospectively and independently controlling PaCO2 and combining it with ^[…]-ammonia Positron Emission Tomography (PET) measurements, and the extent of effect on MBF due to hypercapnia was compared to adenosine. The objectives of these studies were twofold: to investigate the effects of PaCO2 on MBF while minimizing contributions from factors that can unintentionally reduce or inaccurately report on sensitivity of PaCO2 on MBF; and to assess whether an independent, precise and rapid establishment of physiologically tolerable level of hypercapnia provides equivalent hyperemia as adenosine, a commonly used pharmacological stimulus for cardiac stress testing with and without pre-administration of caffeine. To address these aims, a clinically relevant animal model was used along with validated strategies for (i) precisely and rapidly establishing desired levels of PaCO2, while holding PaO2 constant; (ii) quantifying MBF in vivo; and (iii) image analysis to derive MBF values across the different coronary supply territories. We compared our findings to the effects of standard dose of adenosine in the same animal models with and without coronary stenosis to quantify MBF and flow deficit regions under peak tolerable PaCO2. To determine whether MBF response to PaCO2 overlaps the same mechanistic path as adenosine, we quantified MBF under hypercapnia and adenosine following caffeine administration. Studies were conducted as described in Yang, H-J et al., J. Nucl. Med. 58: 953-960 (2017), which is hereby incorporated by reference in its entirety. […] FIGS. 16A, 16B, 16E show the mean regional MBF in LAD, left circumflex artery (LCx) and right coronary artery (RCA) supply territories at rest, hypercapnia and adenosine. MBF values were not different at rest among the different supply territories (p>0.4, for all). […] MBF under hypercapnia was not different between the LCx and RCA territories (hypercapnia: p=0.21); the same was true under adenosine (p=0.50). For each myocardial supply territory, MBF under hypercapnia and adenosine were not different (p=1.00, for all). […] MPR under hypercapnia was not different between the LCx and RCA territories (hypercapnia: p=0.59); the same was true under adenosine (p=0.34). For each myocardial supply territory, MPR under hypercapnia and adenosine were not different (p>0.5 for all). […] Perfusion defect volumes and visual scoring under hypercapnia vs. adenosine were determined. TRP obtained under hypercapnia and adenosine were not different: 25±19% (hypercapnia) vs. 27±15% (adenosine); p=0.12. Direct comparison of TRP within the same subjects under hypercapnia and adenosine were highly correlated (R=0.85, p<0.05) and were in good agreement (bias=2%). Similar trends were observed from visual scoring analysis. No difference between the scores from hypercapnia and adenosine was observed from a paired sampled Wilcoxon signed rank test (p=0.26). Visual scores between hypercapnia and adenosine were concordant with most segments falling onto the diagonal of the scoring matrix (FIG. 18).

[4] = test system: myocardial blood flow (MBF); assay: 13N-ammonia PET myocardial blood flow following pre-administration of caffeine; type: in vivo, canines; conditions: for MBF response relative to rest: following caffeine administration
Method: These studies were conducted by prospectively and independently controlling PaCO2 and combining it with ^13N-ammonia Positron Emission Tomography (PET) measurements, and the extent of effect on MBF due to hypercapnia was compared to adenosine.
The objectives of these studies were twofold: to investigate the effects of PaCO2 on MBF while minimizing contributions from factors that can unintentionally reduce or inaccurately report on sensitivity of PaCO2 on MBF; and to assess whether an independent, precise and rapid establishment of physiologically tolerable level of hypercapnia provides equivalent hyperemia as adenosine, a commonly used pharmacological stimulus for cardiac stress testing with and without pre-administration of caffeine. To address these aims, a clinically relevant animal model was used along with validated strategies for (i) precisely and rapidly establishing desired levels of PaCO2, while holding PaO2 constant; (ii) quantifying MBF in vivo; and (iii) image analysis to derive MBF values across the different coronary supply territories. […] To determine whether MBF response to PaCO2 overlaps the same mechanistic path as adenosine, we quantified MBF under hypercapnia and adenosine following caffeine administration. Studies were conducted as described in Yang, H-J et al., J. Nucl. Med. 58: 953-960 (2017), which is hereby incorporated by reference in its entirety.

[5] = test system: left anterior descending (LAD) artery; assay: Doppler flow in the left anterior descending artery in response to PaCO2 modulation; type: in vivo, canines; conditions: increasing amount of administered CO2, PaO2 held constant
Method: as §1
The Doppler flow was measured in the left anterior descending (LAD) artery. […] The relative change in coronary flow velocity was directly proportional to the amount of CO2 administered.

myocardium [6] = assay: Myocardial BOLD response to PaCO2 in human volunteers; type: in vivo, humans; conditions: early human data, pCO2 change of 10 mmHg, from 35 mmHg to 45 mmHg

Compound: Nc1ncnc2c1ncn2[C@@H]1O[C@H](CO)[C@@H](O)[C@H]1O [adenosine, reference compound]
- epicardial flow enhancement response (LAD coronary arteries): about 20%
- hyperemic BOLD response (myocardium [1]; canines, mean, adenosine stress in three canines): approximately 12%
- mean MBF [2]: 2.2 ± 1.1 mL/min/g
- Global MBF normalized by rate-pressure-product [2]: 1.16×10^−5±0.80×10^−5
- total reduction in perfusion volume (TRP, % LV) between stress and rest [3]: 27±15%
- regional MBF versus rest [3]: increased
- MBF increase in the LAD territory [3]: significantly lower than in the LCx and RCA territories
- MBF response relative to rest [4]: no change in MBF
- global MPR ([4]; under caffeine, p<0.05): lower than under hypercapnia

Compound: Cn1c(=O)c2c(ncn2C)n(C)c1=O [caffeine]
- resting MBF normalized by rate-pressure-product ([4]; post-administration of caffeine (1.5×10^−5 pre-administration, p=0.03)): 1.0×10^−5

Compound: O=C=O [CO2, carbon dioxide]
- BOLD signal intensity (myocardium [1]; block increase from 40 mmHg CO2 to 50 mmHg CO2, canines): increase in BOLD signal intensity
- BOLD signal intensity (myocardium [1]; hypercarbia (60 mm Hg) vs normocarbia (30 mmHg), canines): increase in BOLD signal intensity
- signal intensity, signaling the blood flow, in LAD, RCA and LCX arteries (myocardium [1]; increasing amount of administered CO2): increases
- BOLD signal intensity (myocardium [1]; stepwise CO2 increase (ramp-up), canines): increases
- Doppler flow in LAD artery [5]: increases
- hyperemic response (BOLD) (myocardium [6]): approximately 11%
- mean MBF [2]: 2.1 ± 0.9 mL/min/g
- Global MBF normalized by rate-pressure-product [2]: 1.26×10^−5±0.56×10^−5
- total reduction in perfusion volume (TRP, % LV) between stress and rest [3]: 25±19%
- regional MBF versus rest [3]: increased
- MBF increase in the LAD territory [3]: significantly lower than in the LCx and RCA territories
- MBF response relative to rest [4]: able to induce myocardial hyperemia
